Experimental data reported in patent EP0300390A1, “Trifluoromethyl-alkoxy-anilin, process for their preparation and their use in the ice-colour technique” (HOECHST AKTIENGESELLSCHAFT, priority 1987, dated 1989).

Assay: AMES test (mutagenicity)
Format: cell-based

Question: Which AMES-Test does the source give for `CCCCOc1ccc(C(F)(F)F)cc1N` [5-Trifluormethyl-2-n-butoxy-anilin] here?
Answer: nicht-mutagen
